One series has as its system house dust mites. Conditions: Chang et al. 2001; cited from earlier work.
A further series has as its system Periplanata americana L. To be noted: Nishino et al. 1977; cited from earlier work.
In the next series the test system is Heliothis virescens. Conditions: Mozuraitis et al. 2002; cited from earlier work.
Series [1] is described as follows: Thermal rearrangement, pentane extracts from Actinidia flowers injected at different port temperatures. Type of series: physicochemical. The protocol: Whole flowers of the same plants were also harvested at anthesis in 2000. 18.6 g and 21 g of flowers from a mixture of developmental stages were placed in 2× Quickfit® Erlenmeyer flasks as above. Volatiles were collected onto a Chromosorb adsorbent trap in duplicate, after the system had been equilibrated for 30 min at room temperature (ca. 23° C.), by purging onto the trap with clean air at 25 mL min^−1 for 60 minutes. The trap was stored at −15° C. for one week and then analysed by GC-FD/MS. The same petals (1.99 g) were then extracted with pentane-ether (2 ml) and stored at −20° C. until analysed. The pentane (GPR, BDH) had been purified by distillation and by passing through a column of activated alumina. Pentane extracts were reduced by rotary evaporation and were dried by passing through a small column of anhydrous MgSO4 before the volume was reduced to ca. 50 μL under a gentle stream of nitrogen. The extract was analysed by GC-FID/MS.
GC-MS Analysis of dynamic headspace samples and pentane extracts: Volatile compounds were thermally desorbed from the headspace traps at 150° C. and were cryo-focussed at the beginning of the GC column (Young, 1981). The column outlet was split between the GC (Hewlett Packard 5890) FID detector (for quantitation) and VG-70SE (VG-Micromass, Manchester, U.K.) mass spectrometer (for component identification) with an electron impact ionisation of 70 eV. Separations were carried out in a 30 m×0.32 mm i.d., 0.5 μn DBWax capillary column (J & W Scientific, Folsom, USA), starting at 30° C. for 6 min, increasing by 3° C. min^−1 to 102° C., 5° C. min^−1 to 210° C. and held for 5 min. Injector temperature was 210° C. The carrier gas was He at a flow rate of ˜30 cm s^−1, and the FID and mass spectrometer transfer line were at 210° C. Quantification of compounds was carried out using an average detector response based on methyl butanoate, ethyl butanoate, hexanol and methyl benzoate. Components were identified by comparison with spectra in the mass spectral database (NIST 1998, Wiley 7 and an in-house database), retention indices (in-house database) and in some cases direct GC-MS comparison with authentic standards. Separations for the earlier 2000 samples were carried out in the same manner as above except the programme started at 30° C. for 6 min, increasing by 3° C. min^−1 to 102° C., 5° C. min^−1 to 190° C. and held for 5 min. Analysis of the pentane extract used a programme of 2 min at 40° C., 5° C. min^−1 to 200° C., 15° C. m^−1 to 240° C. and held for 20 min. For genotype 32-10-07a: the GC-MS was programmed to start at 30° C. for 2 min, increasing by 3° C. min^−1 to 50° C., 5° C. min^−1 to 130° C., 10° C. min^−1 to 240° C. and held for 2 min. Injector temperature was 240° C.
In an experiment to test for thermal rearrangement, injections of pentane extract from purified protein were made at temperatures of 125, 150 and 210° C.; or pentane extract from Actinidia flowers were made at temperatures of 100, 125, 150 and 210° C.

Series [2] can be described thus: Thermal rearrangement, pentane extracts from purified protein injected at different port temperatures. Type of series: physicochemical. As to the method:
Dynamic headspace methods were also used to collect the headspace volatiles from the purified extracts on to 100 mg Chromosorb 105 adsorbent traps. The protein was placed into 50 mL Quickfit® test tubes, which were fitted with a headspace adaptor with an air inlet and outlet. Volatiles were collected onto the Chromosorb 105 adsorbent traps, which were fitted to the air outlet port of each adaptor. The volatiles were purged from the vessel onto the traps with clean air at 50 mL min^−1 for 18 hours. The traps were stored at −15° C. for up to one week, and then subjected to GC-FIDIMS analysis. Finally, pentane extracts were taken from the purified extracts. An aliquot (2.5 ml) of pentane was added to the purified extracts and was left to extract for 18 hours. The pentane was removed and then concentrated with a stream of N2 gas. This was then injected onto the GC-MS at 150° C.
More light can be shed on the possibility of rearrangement of the products using pentane extraction.
In an experiment to test for thermal rearrangement, injections of pentane extract from purified protein were made at temperatures of 125, 150 and 210° C.; or pentane extract from Actinidia flowers were made at temperatures of 100, 125, 150 and 210° C. […] Germacrene B modulated slightly in response to temperature shifts although no gamma-elemene was found as might be predicted. In addition the predicted precursor for delta elemene—germacrene C (Feger et al., Flavour and Fragrance Journal 15: 170-173 (2000)) was not detected at any time. Germacrene A was also not detected at any time. […] Elemol may arise from further rearrangements of delta-elemene or from other elemene sources or from hedycaryol (Chamblee et al., J. Essent. Oil Res. 9: 127-132 (1997)). No GC-MS traces in any experiments indicated evidence for germacrene-C or for hedycaryol.

The conditions of series [3]: Bülow and König 2000; cited from earlier work.
Series [4] deals with multifunctional germacrene D synthase. Kind of series: Headspace volatiles above E. coli BL21 cultures harbouring pET30a75565, PDMS/DVB SPME. Type of series: cell-based, Actinidia deliciosa. Conditions: bacterial cultures. The protocol: Expression and characterization of multifunctional germacrene D synthase from bacterial cultures: E. coli BL21-Plus™-RIL cells harbouring pET30a75565, or empty pET30a vector as a control, were grown overnight at 37° C. in Luria-Bertani media supplemented with 30 μg/mL kanamycin and 50 μg/mL chloramphenicol. […] of overnight culture was used to inoculate 50 mL of fresh 2× YT medium supplemented with 30 μg/mL kanamycin and 50 μg/mL chloramphenicol. […] The culture was immediately transferred to an incubator set at 16° C., 30° C. or 37° C. depending on the experiment The headspace in the vessels above the bacterial cultures was collected immediately after the addition of FDP (or GDP) and hexadecane (the internal standard) using solid phase micro extraction (SPME). […] The background was analysed for contamination using GC-FID (HP5890) prior to use. The headspace volatiles were collected for ˜20 hours at 30° C. with continuous agitation (110 rpm). Prior to analysis using a GC-FID/MS, the fibres were stored at ambient temperature in septum sealed glass vials. The PDMS/DVB fibres were desorbed in the injector at 260° C.

For series [5], the system named is multifunctional germacrene D synthase (EST75565). Kind of series: Sesquiterpene products of purified recombinant protein + FDP, headspace trapping GC-MS. The series is classed as biochemical, Actinidia deliciosa.
Method: Characterization of multifunctional germacrene D synthase from bacterial extracts and purified recombinant protein: E. coli BL21-Plus™-RIL cells harbouring pET-30a75565 were grown overnight at 37° C. in Lauria-Bertani media supplemented with 30 μg ml^−1 kanamycin and 34 μg ml chloramphenicol^−1. 5 mL aliquots of overnight culture were used to inoculate 4×300 mL of fresh 2× YT medium supplemented with 30 μg ml^−1 kanamycin and 34 μg ml^−1 chloramphenicol in 1 L baffled flasks. Cultures were grown at 37° C. with vigorous agitation to A600=0.8, then removed to 4° C. to equilibrate to 16° C. before induction with 0.3 mM IPTG. Following induction, cultures were immediately transferred to a 16° C. incubator and allowed to grow for a further 24 hours with continuous agitation and then harvested by centrifugation (2000×g for 10 min). […]
The headspace in the testubes was collected immediately after the addition of FDP (or GDP) and hexadecane (internal standard) using solid phase micro extraction (SPME). […] The background was analysed for contamination using GC-FID (HP5890) prior to use. […]
The volatiles were desorbed from the fibres in the GC injection port for 10 minutes at 220° C. for the Carbowax/DVB fibres. […] Semi-quantitative data was obtained by measuring sample peak area relative to hexadecane internal standard. […]
For series [6], the system named is other sesquiterpene synthases. Conditions: read-out: Km in the literature; cited from earlier work.
The target of another series is Germacrene D synthase (Actinidia deliciosa, UniProt Q32W37). In words: Kinetic studies with 3H-FDP, pentane overlay scintillation assay. Type of series: biochemical. To be noted: for inhibition at high concentrations of the chloride salts: >5 mM and 10 mM of the respective Mg2+ and Mn2+ chloride salts. As to the method: Optimisation of large-scale production of protein and protein kinetics: E. coli BL21-PlusTM-RIL cells harbouring pET-30a75565 were grown overnight at 37° C. in Lauria-Bertani media supplemented with 30 μg ml^-1 kanamycin and 34 μg ml chloramphenicol^-1. 5 mL aliquots of overnight culture were used to inoculate 4×300 mL of fresh 2× YT medium supplemented with 30 μg ml^-1 […] 34 μg ml^-1 chloramphenicol in 1 L baffled flasks. Cultures were grown at 37° C. with vigorous agitation to A600=0.8, then removed to 4° C. to equilibrate to 16° C. before induction with 0.3 mM IPTG. Induced cultures were then incubated at 16° C. and 220 rpm for a further 72 hours. Cells were pelleted by centrifugation (2500×g; 10 min) and stored overnight at -20° C. The following day cell pellets were resuspended in 20 mL His6 binding buffer and cells were disrupted by 2 passes through an EmulsiFlex®-C15 high-pressure homogeniser (Avestin) with a pressure setting between 15000-20000 psi. Cell debris was pelleted by centrifugation 2× at 10000×g for 15 min; 4° C. (Sorval SS34 rotor). […] Filtered extract was desalted and passed over a Nickel affinity column. Concentration of the recombinant synthase in the purified protein extracts was estimated from SDS-PAGE gels by comparing against a BenchMarkTM Protein Ladder (Invitrogen). Purified extracts were adjusted to a workable concentration with His6 elution buffer (without Imidazole) containing 10% glycerol and 1 mM DTT. The extract was then separated into 100 μl aliquots and stored at -80° C. until required. […] Kinetic Studies: […] Tritiated FDP was added variously depending on the experiment. One mL assays containing 100-150 ng of the recombinant synthase were overlaid with 0.6 mL pentane and incubated in 1.5 mL microfuge tubes for 2 hours at 30° C. and 150 rpm. All assays were performed in triplicate. Following incubation assays were immediately placed on ice and a 200 μL aliquot of the pentane layer removed for analysis. The aliquots were added to 1.5 mL microfuge tubes containing 0.7 mL Organic Counting Scintillant (OCS) (Amersham) and vortexed briefly. Scintillation analysis was performed using a Wallac 1409 Liquid Scintillation Counter (^3H efficiency≈70%). […] The effect on enzyme activity of metal co-factors with and without salts was also tested. Mg^2+ and Mn^2+ were added in the presence and absence of 50 mM KCL and 50 mM NaCl in all possible combinations. Controls included incubation without enzyme, with enzyme but without metal ion cofactors and with enzyme and cofactors in the presence of 10 mM EDTA. A further control comprising His6 purified pET-30a extract was also assayed to determine potential utilisation of FDP by co-purifying bacterial proteins. […] Kinetic constants were determined from the DPM data by nonlinear regression using the Origin50 graphics package.
Sequence of Germacrene D synthase (Q32W37 entry or part of it): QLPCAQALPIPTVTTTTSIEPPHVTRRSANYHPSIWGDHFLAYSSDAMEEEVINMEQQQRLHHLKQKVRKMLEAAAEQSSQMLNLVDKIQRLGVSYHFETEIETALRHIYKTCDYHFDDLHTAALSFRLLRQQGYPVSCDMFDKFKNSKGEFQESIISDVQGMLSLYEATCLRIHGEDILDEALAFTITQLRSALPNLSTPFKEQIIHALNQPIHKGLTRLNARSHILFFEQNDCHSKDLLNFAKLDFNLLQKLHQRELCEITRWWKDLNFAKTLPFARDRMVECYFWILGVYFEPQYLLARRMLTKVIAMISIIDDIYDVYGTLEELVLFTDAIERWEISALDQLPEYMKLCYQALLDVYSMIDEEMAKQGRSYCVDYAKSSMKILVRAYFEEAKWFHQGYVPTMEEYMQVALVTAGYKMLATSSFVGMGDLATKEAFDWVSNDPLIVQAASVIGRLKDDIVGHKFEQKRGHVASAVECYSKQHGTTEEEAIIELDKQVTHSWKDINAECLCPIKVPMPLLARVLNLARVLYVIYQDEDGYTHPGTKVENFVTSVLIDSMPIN

Where [7] appears, read: injection port temperature 100 °C.
[8] abbreviates: injection port temperature 125 °C.
The mark [9] stands for this setting: injection port temperature 150 °C.
Setting [10] is: injection port temperature 210 °C.

Structures are written as SMILES.

Turning to `CC1=C[C@@H]2[C@@H](CC1)[C@](C)(O)CC[C@H]2C(C)C` [Alpha-cadinol], in the series on house dust mites, the miticidal activity entry is “potent miticide”.
`C=C1C=CC(C(C)C)CCC(C)=CCC1` (stereo not shown) [Germacrene D, 7-iso-propyl-10-methyl-4-methylene-cyclodeca-5,10-diene]: the “effect on male cockroach” value in the series with Periplanata americana L. is “sex stimulant”. The “effect on moth behaviour” value in the series with Heliothis virescens is “increase attraction of and oviposition”. Besides, the “Peak Area” value in series [1] (setting [7]) was 2.85 × 10^7 ^; in series [1] (setting [8]), 3.78 × 10^7; in series [1] (setting [9]), 3.87 × 10^7; in [1] (setting [10]) it was 2.42 × 10^7; in series [2] (setting [8]), 4.22 × 10^6; in series [2] (setting [9]) it was 4.90 × 10^6. Further, in series [2] (setting [10]), the “Peak Area” value is 3.91 × 10^6. In series [3], the “temperature up to which stable” value is “up to 180 °C”.
On to `CC(C)=CCC/C(C)=C/COP(=O)(O)OP(=O)(O)O` [GDP, geranyl diphosphate], for which the results for the “products on addition of GDP instead of FDP” value in series [4] and in series [5] were “did not result in the production of any monoterpenes” and “did not produce any germacrene D”, respectively.
As usually defined, the Km is the substrate concentration at which the rate is half of its maximum. Regarding `[Mn+2]` [Mn^2+], the Michaelis constant (Km) in series [6] is 7 to 30 µM. Besides, on Germacrene D synthase, the “Vrel with Mn2+ as cofactor relative to Mg2+” value is on record as roughly 27%, the “effect of Mn in the buffer when Mg2+ present” value is “inhibition of activity” and the “inhibition at high concentrations of the chloride salts” value is given as “No significant inhibition”.
Take `C=C[C@@]1(C)CCC(C(C)C)=C[C@@H]1C(=C)C` [δ-Elemene]: the “Peak Area” value in series [1] (setting [9]) is recorded as “ca. 5.7 × 10^5”; in series [1] (setting [10]) it was 4.14 × 10^6; in [2] (setting [10]), 9.05 × 10^5.
For `CC(C)=CCC/C(C)=C/CC/C(C)=C/COP(=O)(O)OP(=O)(O)O` [FDP, farnesyl diphosphate], the Km in [6] was 0.4 to 4.5 µM. In addition, the “saturating concentration of FDP” value at Germacrene D synthase is roughly 7.5 µM. For the same compound, on Germacrene D synthase (1 mM substrate concentration), the inhibition by substrate was roughly 50%.
On to `C=C[C@]1(C)CC[C@@H](C(C)(C)O)C[C@H]1C(=C)C` [Elemol], for which the “Peak Area” value is “ca. 8.4 × 10^6” in series [1] (setting [9]); 3.78 × 10^7 in [1] (setting [10]); “ca. 9 × 10^4^” in [2] (setting [8]); “ca. 1.4 × 10^5^” in series [2] (setting [9]); 5.75 × 10^6 in series [2] (setting [10]).
On to `[Mg+2]` [Mg^2+], for which the Km in series [6] was 70 to 150 µM. The “inhibition at high concentrations of the chloride salts” value on Germacrene D synthase is listed as “No significant inhibition”.
In the case of `CC(C)=C1C/C=C(\C)CC/C=C(\C)CC1` [Germacrene B], the “Peak Area” value in series [1] (setting [7]) is on record as 5.0 × 10^6; in [1] (setting [8]), 7.40 × 10^6; in series [1] (setting [9]) it was 1.0 × 10^7; in [1] (setting [10]), 3.92 × 10^6; in series [2] (setting [8]), 7.57 × 10^5; in series [2] (setting [9]) it was 8.58 × 10^5. Besides, the “Peak Area” value in series [2] (setting [10]) is reported as 5.87 × 10^5.

The record behind these values is US7312323B2, “Enzymes and polynucleotides encoding the same” (The Horticulture and Food Research Institute of New Zealand …, priority 2002, dated 2007).
